Results: PubChem BioAssay AID464 (The Scripps Research Institute Molecular Screening Center, 2006)
The source made the active and inactive calls.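 Rule for the calls: active = Compounds that kill half the cells at a concentration of 5 micromolar or below, from the fitted or estimated CC50; inactive = CC50 above 5 micromolar.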

These molecules were tested on Jurkat E6.1 viability, ATP luminescence, 48 h (assay: viability loss in Jurkat T cells – cell-based, ATP luminescence, 48 h, 60K MLSMR, cytotoxicity control, dose response (AID 464)).

| Compound | CC50 |
| --- | --- |
| CCC/C(O)=C1\C(=O)CC(C)(C)CC1=Nc1ccc(OC)cc1OC | 1.78 µM |
| CCOC(=O)CSC1=C(C#N)C(c2ccc(C)o2)CC(=O)N1 (centres undefined) | 0.535 µM |
| CCCCCOC(=O)c1[nH]c2c(c1C)C(=O)CC(c1ccco1)C2 (centres undefined) | 0.084 µM |
| Cc1c(C(=O)N2CCCCC2)oc2ccc(S(=O)(=O)N3CC(C)CC(C)C3)cc12 (centres undefined) | 15.9 µM (inactive) |
| Cc1ccnc(SCC(=O)Nc2sc3c(c2C#N)CCCC3)n1 | > 40 µM (inactive) |
| Cn1c(-c2ccccc2)cc2c3no[n+]([O-])c3ccc21 | 2.41 µM |
| CCOc1ccccc1N1CC(O)=C(c2nc3ccccc3s2)C1=N | 1.84 µM |
| CCCCN(CC)S(=O)(=O)c1ccc(C(=O)Nc2nnc(-c3cccs3)o2)cc1 | 13.9 µM (inactive) |
| Cc1cc(NC(=O)CCS(=O)(=O)c2nc(-c3ccccc3)cc(C(F)(F)F)n2)no1 | 5.13 µM (inactive) |
| COc1ccc(C(=O)C(CN2CCOCC2)c2ccccc2)cc1F (centres undefined) | 5.09 µM (inactive) |
| O=C(CSc1nnnn1C1CC2CCC1C2)Nc1ccnc2ccccc12 (centres undefined) | 0.092 µM |
| COC(=O)c1ccc(Oc2cc(C)nc(SC)n2)cc1 | 1.68 µM |
| Cn1nc(-c2ccc(OCC(=O)N3CCN(Cc4ccccc4)CC3)cc2)c2ccccc2c1=O | 9.14 µM (inactive) |
| Cc1cc(NO)nc(-c2ccc(Br)cc2)n1 | > 40 µM (inactive) |
| COc1cccc2sc(Nc3nnc(-c4ccccc4Cl)o3)nc12 | 1.13 µM |
| Cc1ccc2[nH]c(=O)c(CN(Cc3ccco3)C(=O)c3ccncc3)cc2c1 | 6.52 µM (inactive) |
| Cn1c(=O)c2c(nc(NCc3ccco3)n2C/C=C/c2ccccc2)n(C)c1=O | 9.36 µM (inactive) |
| O=C(NCC(c1cccs1)N1CCOCC1)c1ccc(Cl)s1 (centres undefined) | 0.882 µM |
| Cc1nc(NCc2ccco2)c2c3c(sc2n1)CCC3 | 15.6 µM (inactive) |
| O=C1CN=C(c2cccs2)c2c(sc3c2CCCC3)N1 | 7.46 µM (inactive) |
| Cc1cc(NC(=O)COc2cccc(Oc3ccccc3)c2)no1 | 8.94 µM (inactive) |
| O=C(c1ccccc1-c1ccccc1)N1CCN(c2ccccn2)CC1 | 1.55 µM |
| CC(=O)Nc1ccc(S(=O)(=O)N2CCCc3ccccc32)cc1 | 3.07 µM |
| C=CCN(C(=O)c1ccccc1)c1ccc(OC)cc1 | 9.5 µM (inactive) |
| Cc1nc2sccn2c1-c1csc(NCc2ccccc2)n1 | 4.81 µM |
| CCCCCCc1ccc(-c2ncc(N)cn2)cc1 | 28.5 µM (inactive) |
| Cn1c(=O)c2c(nc(NCCO)n2CCc2ccccc2)n(C)c1=O | 9.41 µM (inactive) |

| Compound | CC50 |
| --- | --- |
| COCCOC(=O)c1[nH]c2c(c1C)C(=O)CC(c1ccco1)C2 (centres undefined) | 0.945 µM |
| Cc1oc(-c2ccccc2Cl)nc1CSCC(=O)N1CCCC1 | > 40 µM (inactive) |
| CCOC(=O)c1[nH]c(C)c(C(=O)Nc2ccc(C)cc2C)c1C | 1.64 µM |
| c1ccc(OCCCCn2cnc3ccccc32)cc1 | 20.3 µM (inactive) |
| CCCN1CCN(c2ncnc3c2nnn3Cc2ccccc2)CC1 | 9.22 µM (inactive) |
| COc1ccc(CC(=O)Nc2cccc(-c3nnc(-c4cccc(C)c4)o3)c2)cc1OC | 7.1 µM (inactive) |
| c1ccc(C(Cc2nc(-c3ccncc3)no2)c2ccccc2)cc1 | 8.52 µM (inactive) |
| CCOC(=O)c1c(COc2ccccc2)oc2ccc(O)cc12 | > 40 µM (inactive) |
| COc1cc(NS(=O)(=O)c2ccc3c(c2)oc(=O)n3C)cc(OC)c1OC | 5.88 µM (inactive) |
| O=C1C2C3C=CC(CO)(O3)C2C(=O)N1c1ccccc1-c1ccccc1 (centres undefined) | 6.29 µM (inactive) |
| CCOC(=O)c1[nH]c(C)c(C(=O)N2CCc3ccccc32)c1C | 0.284 µM |
| CCCCNc1ncnc2c1cnn2-c1ccccc1 | 2.39 µM |
| COc1cc2c(O)c3c(c(-c4ccc5c(c4)OCO5)c2cc1OC)C(=O)OC3 | 5.28 µM (inactive) |
| CC(C)Oc1ccccc1C1CC(=O)Nc2cc3c(cc21)OCCO3 (centres undefined) | 0.576 µM |
| CSc1nnc2c3ccccc3n(CCc3ccccc3)c2n1 | 16.9 µM (inactive) |
| CC(C)c1cc(C(=O)Nc2sc3c(c2C#N)CCC3)no1 | 15.6 µM (inactive) |
| O=C(CSc1n[nH]c(-c2ccccc2O)n1)N1CCCc2ccccc21 | 9.5 µM (inactive) |
| COc1cc(C(=O)N2CCN(c3ccc(C)cc3C)CC2)cc(OC)c1OC | 1.69 µM |
| CSc1nc2nc3c(c(=O)n2[nH]1)CN(Cc1ccccc1)CC3 | > 40 µM (inactive) |
| CCOc1cc(N2CCOCC2)c(OCC)cc1NC(=O)COc1cccc2cccnc12 | 9.13 µM (inactive) |
| O=C(Cn1cnc2c(cnn2-c2ccc(F)cc2)c1=O)NCc1ccco1 | > 4.4 µM (inactive) |
| COc1ccc(-c2nc3cc(NC(=O)Cc4ccc(OC)c(OC)c4)ccc3o2)cc1 | > 40 µM (inactive) |
| CCCCN(C)S(=O)(=O)c1ccc(C(=O)Nc2nnc(-c3cccs3)o2)cc1 | 14.1 µM (inactive) |
| CC1(C)Cc2nc3sc4c(SCC(=O)NCc5ccco5)ncnc4c3cc2CO1 | 18 µM (inactive) |
| CCc1ccc2nc(NC(=O)c3cc(C)on3)sc2c1 | 3.71 µM |
| CCOC(=O)c1ccccc1NC(=O)Cn1c(-c2nonc2N)nc2ccccc21 | 0.296 µM |
| CCOC(=O)/C=C/S(=O)(=O)c1ccc(NC(C)=O)cc1 | 3.21 µM |
